Molecules are shown by their SMILES.

One test concerns the target PCP receptor. As to the kind of experiment: [3H]TCP radioreceptor assay (binding to PCP recognition sites). The arrangement: species or system rat (male Sprague-Dawley, whole brain). The note with it: [3H]TCP approx. 1 nM, rat brain membranes; mean of at least two determinations. As for the experimental part:
[^3 H]TCP Radioreceptor Assay
[^3 H]TCP binding to PCP recognition sites was performed as described by Vignon et al. Brain Research 1983, 280, 194-197. Male Sprague-Dawley rats were sacrificed by decapitation, and whole brains were homogenized in 10 volumes (wt/vol) of cold Tris-HCl buffer (50 mM, pH 7.7) using a Brinkmann Polytron (setting 6, 30 sec). The homogenate was centrifuged at 40,000×g for 10 min at 4° C. The supernatant was decanted, and the homogenization and centrifugation steps were repeated twice as described above. Following this, the pellet was resuspended in Tris-HCl (5 mM, pH 7.7) at a tissue concentration of 0.5-0.75 g/mL, and one mL aliquots were frozen at -70° C. until use. The binding characteristics for PCP recognition sites were not altered by the freezing of membrane suspensions.
On the day of the assay, membrane aliquots were thawed, resuspended in fresh 5 mM Tris-HCl buffer at a tissue concentration of 1 mg/mL, and stored on ice until use. Each assay tube contained 100 μl of [^3 H]TCP at a final concentration of approximately 1 nM, 100 μL of various concentrations of the compounds of interest, 500 μL of the tissue suspension and 300 μL of buffer to a final assay volume of 1 mL and a final protein concentration of 0.5 mg/tube. Non-specific binding was defined by addition of a final concentration of 100 μM PCP to blank tubes. All tubes were incubated at room temperature for 25 min before termination of the reaction by rapid filtration over Whatman GF/B glass fiber filters that had been presoaked in a solution of 0.5% polyethylenimine for at least 1 hr prior to use. Filters were washed with three 4 mL volumes of cold Tris buffer. Following addition of scintillation cocktail, the amount of bound radioactivity was determined by liquid scintillation spectrometry using a Beckman LS 5000TA liquid scintillation counter with an efficiency for tritium of approximately 55%. Inhibition constants (Ki values) were calculated using the EBDA/LIGAND program (McPherson, J. Pharmacol. Meth. 1985, 14, 213-228), purchased from ElsevierBiosoft, Inc. Results are reported as the Ki values (in nM) which are expressed as the mean of at least two separate determinations; or as a percent (%) inhibition of binding at 10 μM.
What is called Ki is a dissociation constant, usually derived from enzyme kinetics or from competition with a known ligand. High values mean weaker binding, low ones tighter binding. Turning to `COc1cccc(C2(c3cccc(OC)n3)CC3c4ccccc4C2c2cccc[n+]23)n1.[O-][Cl+3]([O-])([O-])[O-]` (centres unmarked) [67(e), 6,11-ethano-12,12-di-(6-methoxypyridin-2-yl)-6,11-dihydrobenzo[b]quinolizinium perchlorate], the inhibitory constant (Ki) came to 80 nM.
The same measure, in the same setting: the value for `COc1cccc(C23c4ccccc4CC2C2c4ccccc4C3c3cccc[n+]32)c1` (single isomer, unassigned) [5(d), 6,11[2',3']-3'-(3-methoxyphenyl)-indanyl]16,11-dihydrobenzo[b]quinolizinium hexafluorophosphate] was 22 nM; that for `CCOC1(c2ccoc2)CC2c3ccccc3C1c1cccc[n+]12` (centres unmarked) [11(d), 6,11-ethano-12-(3-furyl)-12-ethoxy-6,11-dihydrobenzo[b]quinolizinium hexafluorophosphate] was 26 nM; that for `Oc1ccc[n+]2c1C1c3ccccc3C2CC1(c1ccoc1)c1ccoc1` (centres unmarked) [Example 168(c), 6,11-ethano-12,12-di(3-furyl)-1-hydroxy-6,11-dihydrobenzo[b]quinolizinium chloride] was 306 nM.
Turning to `c1ccc2c(c1)C1C3CCc4occc4C3(c3cc4ccccc4o3)C2c2cccc[n+]21` (centres unmarked) [10(c-G), 6,11[[5',4']-4'-(2-benzofuryl)-4',5',6',7'-tetrahydrobenzofuryl]6,11-dihydrobenzo[b]quinolizinium hexafluorophosphate], the Ki is 4450 nM.
On the same count and under the same terms, the value for `CCOC1(c2cc(C)oc2C)CC2c3ccccc3C1c1cccc[n+]12` (centres unmarked) [12(b), 6,11-ethano-12-(2,5-dimethyl)-3-furyl]-12-ethoxy-6,11-dihydrobenzo[b]quinolizinium hexafluorophosphate] was 253 nM; that for `Cc1noc2c1CCC1C3c4ccccc4C(c4cccc[n+]43)C21c1ccoc1` (centres unmarked) [8(c), 6,11[[6',7']-7'-(3-furyl)-3'-methyl-4',5',6',7'-tetrahydrobenzisoxazol]6,11-dihydrobenzo[b]quinolizinium hexafluorophosphate] was 117 nM.
In the case of `[O-][Cl+3]([O-])([O-])[O-].c1ccc2c(c1)C1CC(c3cocn3)(c3cocn3)C2c2cccc[n+]21` (centres unmarked) [53(g), 6,11-ethano-12,12-di(4-oxazolyl)-6,11-dihydrobenzo[b]quinolizinium perchlorate], the affinity corresponds to a Ki of 93 nM.
Compound `CC1C2c3ccccc3C(c3cccc[n+]32)C1(c1ccccc1)c1ccccc1` (centres unmarked) [Example 18, 6,11-ethanol-12,12-diphenyl-13-methyl-6,11-dihydrobenzo[b]quinolizinium perchlorate] returned a Ki of 19.5 nM.
Turning to `Oc1c(Cl)ccc2c1C1c3cccc[n+]3C2CC1(c1ccoc1)c1ccoc1` (centres unmarked) [188(c), 6,11-ethano-12,12-di(3-furyl)-9-chloro-10-hydroxy-6,11-dihydrobenzo]b]quinolizinium chloride], the Ki is 23.6 nM.
On to `COc1cccc(C2(c3cccc(OC)c3)CC3c4ccccc4C2c2cccc[n+]23)c1` (centres unmarked) [35(c), 6,11-ethano-12,12-di(m-methoxyphenyl)-6,11-dihydrobenzo[b]quinolizinium chloride], for which the Ki is 41 nM.
With `CC(C)(C)C(=O)Oc1cccc2c1C1c3cccc[n+]3C2CC1(c1ccoc1)c1ccoc1` (centres unmarked) [Example 174, 6,11-ethano-12,12-di(3-furyl)-10-trimethylacetyloxy-6,11dihydrobenzo-[b]quinolizinium chloride], the Ki came out at 23.7 nM.
The compound `COc1cccc2c1C1c3cccc[n+]3C2CC1(c1ccccc1)c1ccccc1.[O-][Cl+3]([O-])([O-])[O-]` (centres unmarked) [25(c), 6,11-ethano-12,12-diphenyl-10-methoxy-6,11-dihydrobenzo[b]quinolizinium perchlorate] yielded a Ki of 39.3 nM.
On to `O=[N+]([O-])c1cccc2c1C1CC(c3ccoc3)(c3ccoc3)C2c2cccc[n+]21.[O-][Cl+3]([O-])([O-])[O-]` (single isomer, unassigned) [Example 201(c), 6,11-ethano-12,12-di(3-furyl)-7-nitro-6,11-dihydrobenzo[b]quinolizinium perchlorate], for which the Ki was determined as 3430 nM.
Same read-out and setting: the value for `c1cncc(C2(c3cccnc3)CC3c4ccccc4C2c2cccc[n+]23)c1` (centres unmarked) [42(E), 6,11-ethano-12,12-di(3-pyridyl)-6,11-dihydrobenzo[b]quinolizinium chloride] was 2270 nM; that for `c1ccc(C2(c3ccccn3)CC3c4ccccc4C2c2cccc[n+]23)nc1` (centres unmarked) [24(b), 6,11-ethano-12,12-di-(2-pyridyl)-6,11-dihydrobenzo[b]quinolizinium chloride hydrate] was 8.39 nM; that for `CC12CC(c3ccccc3)(c3ccccc3)C(c3c(O)cccc31)c1cccc[n+]12` (centres unmarked) [38(c), 6,11-ethano-12,12-diphenyl-10-hydroxy-6-methyl-6,11-dihydrobenzo[b]quinolizinium chloride] was 16.6 nM.
The same measure, in the same setting: under `Oc1cccc2c1C1c3cccc[n+]3C2CC1(c1ccccc1)c1ccccc1` (centres unmarked) [28(c), 6,11-ethano-12,12-diphenyl-10-hydroxy-6,11-dihydrobenzo[b]quinolizinium chloride] stands 11.7 nM; under `c1ccc2c(c1)C1CC(c3cn[nH]c3)(c3cn[nH]c3)C2c2cccc[n+]21` (centres unmarked) [161(d), 6,11-ethano-12,12-di(pyrazol-4-yl)]-6,11-dihydrobenzo[b]quinolizinium perchlorate], 3680 nM; under `c1ccc2c(c1)C1CC(c3ncc[nH]3)(c3ncc[nH]3)C2c2cccc[n+]21` (centres unmarked) [173(e), 6,11-ethano-12,12-di(imidazol-2-yl)-6,11-dihydrobenzo[b]quinolizinium chloride], 1670 nM.
Take `[O-][Cl+3]([O-])([O-])[O-].c1ccc2c(c1)C1CC(c3cncs3)(c3cncs3)C2c2cccc[n+]21` (centres unmarked) [62(c), 6,11-ethano-12,12-di(5-thiazolyl)-6,11-dihydrobenzo[b]quinolizinium perchlorate]: the Ki was 120 nM.
`Oc1cccc2c1C1c3cccc[n+]3C2CC1(c1cc[nH]n1)c1cc[nH]n1` (centres unmarked) [175(b)] showed a Ki of 119 nM.
As for `CCOC1(c2ccoc2)CC2(C)c3ccccc3C1c1cccc[n+]12.[O-][Cl+3]([O-])([O-])[O-]` (centres unmarked) [Example 13(a), 6,11-ethano-12-(3-furyl)-12-ethoxy-6-methyl-6,11-dihydrobenzo[b]quinolizinium perchlorate], the Ki turned out to be 19 nM.
Compound `c1ccc2c(c1)C1C3CCc4sccc4C3(c3ccoc3)C2c2cccc[n+]21` (centres unmarked) [15(c), 6,11[[5',4']-4'-(3-furyl)-4',5',6',7'-tetrahydrothianaphthyl]6,11]-dihydrobenzo[b]quinolizinium hexafluorophosphate] came in with a Ki of 1.4 nM.
Turning to `COc1cccc2c1C1c3cccc[n+]3C2CC1(c1cc[nH]n1)c1cc[nH]n1` (centres unmarked) [179(b), 6,11-ethano-12,12-di(pyrazolyl-3-yl]-10-methoxy-6,11-dihydrobenzo[b]quinolizinium chloride], the Ki is 259 nM.
The same measure, in the same setting: under `c1ccc2c(c1)C1CC(c3cnn[nH]3)(c3cnn[nH]3)C2c2cccc[n+]21` (centres unmarked) [70(F), 6,11-ethano-12.12-di-(5-1,2,3-triazoyl)6,11-dihydrobenzo[b]quinolizinium Chloride] stands 3830 nM; under `Brc1ccc(Br)c2c1C1CC(c3ccoc3)(c3ccoc3)C2c2cccc[n+]21.[O-][Cl+3]([O-])([O-])[O-]` (centres unmarked) [60(e), 6,11-ethano-12,12-di(3-furyl)-7,10-dibromo-6,11-dihydrobenzo[b]quinolizinium perchlorate], 345 nM.
In turn, `c1ccc2c(c1)C1C3CCc4occc4C3(c3ccoc3)C2c2cccc[n+]21` (centres unmarked) [7(c), 6,11-[5',4"]-4'-(3-furyl)-4',5',6',7'-tetrahydrobenzofuryl]-6,11-dihydrobenzo[b]quinolizinium chloride] gave a Ki of 1.1 nM.
As for `COc1ncccc1C1(c2cccnc2OC)CC2c3ccccc3C1c1cccc[n+]12.[O-][Cl+3]([O-])([O-])[O-]` (centres unmarked) [160(d), 6,11-ethano-12,12-di-(2-methoxypyridin-3-yl)-6,11-dihydrobenzo[b]quinolizinium perchlorate], the affinity, expressed as Ki, was 453 nM.
Still for that read-out and setting: the value for `c1ccc2c(c1)C1CC(c3cc[nH]c3)(c3cc[nH]c3)C2c2cccc[n+]21` (centres unmarked) [71(F), 6,11-ethano-12,12-di(3-pyrrolyl)-6,11-dihydrobenzo[b]quinolizinium chloride] was 3.1 nM.

The test is the same for the next values; noted with them: inhibition of [3H]TCP binding at 10 μM.
As to `Cc1ccc(C2(c3ccc(C)cc3)CC3c4ccccc4C2c2cccc[n+]23)cc1.[Cl-]` (centres unmarked) [30(c), 6,11-ethano-12,12-di-(p-methylphenyl)-6,11-dihydrobenzo[b]quinolizinium chloride], the “[3H]TCP percent inhibition @ 10 μm” value was 22%.
The same measure, in the same setting: the value for `[Cl-].c1ccc2c(c1)C1CC(c3ccncc3)(c3ccncc3)C2c2cccc[n+]21` (centres unmarked) [49(E), 6,11-ethano-12,12-di(4-pyridyl)-6,11-dihydrobenzo[b]quinolizinium chloride] was 54%.

Source of the values: patent US5554620A, “Substituted 6,11-ethano-6,11-dihydrobenzo[b] quinolizinium salts and compositions and methods of use thereof” (Sterling Winthrop Inc., priority 1994, dated 1996).
